Where two headings read alike, the source gives them in different places.
Target: recombinant human SAE enzyme (Homo sapiens (Human), UniProt Q9UBT2)
Experiment: SAE HTRF enzyme assay
Type: biochemical
Conditions: for inhibition at 0.111 µM: read-out: Percent Inhibition
Method: Example 215: SAE HTRF enzyme assay
The SAE enzymatic reaction totals 50 μl and contains 50 mM HEPES Hemisodium (pH 7.5), 0.05% BSA, 5 mM MgCl2, 0.5 μM ATP, 250 μM GSH, 0.01 μM Ubc9-GST, 0.125 μM Sumo-Flag and 0.11 nM recombinant human SAE enzyme. The enzymatic reaction mixture, with and without inhibitor, Is incubated at 24° C. for 105 min in a 384-well plate before termination with […] of Stop/Detection buffer (0.1M HEPES Hemisodium pH 7.5, 0.05% Tween20, 20 mM EDTA, 410 mM KF, 0.53 nM Europium-Cryptate labeled monoclonal anti-Flag M2 Antibody (CisBio International) and 8.125 μg/ml PHYCOLINK goat anti-GST allophycocyanin (XL-APC) antibody (Prozyme)). After incubation for 2 hours at 24° C., quantification of FRET is performed on the Pherostar™ (BMG Labtech). Percentage inhibition values at a single concentration or enzyme inhibition (IC50) values are determined from those curves. One skilled in the art will appreciate that the values generated either as percentage inhibition at a single concentration or IC50 values are subject to experimental variation.

[1] = SAE inhibition at compound concentration 0.111 μM
[2] = SAE inhibition, class symbols, legend in nM

Sequence of recombinant human SAE enzyme (Q9UBT2 whole entry): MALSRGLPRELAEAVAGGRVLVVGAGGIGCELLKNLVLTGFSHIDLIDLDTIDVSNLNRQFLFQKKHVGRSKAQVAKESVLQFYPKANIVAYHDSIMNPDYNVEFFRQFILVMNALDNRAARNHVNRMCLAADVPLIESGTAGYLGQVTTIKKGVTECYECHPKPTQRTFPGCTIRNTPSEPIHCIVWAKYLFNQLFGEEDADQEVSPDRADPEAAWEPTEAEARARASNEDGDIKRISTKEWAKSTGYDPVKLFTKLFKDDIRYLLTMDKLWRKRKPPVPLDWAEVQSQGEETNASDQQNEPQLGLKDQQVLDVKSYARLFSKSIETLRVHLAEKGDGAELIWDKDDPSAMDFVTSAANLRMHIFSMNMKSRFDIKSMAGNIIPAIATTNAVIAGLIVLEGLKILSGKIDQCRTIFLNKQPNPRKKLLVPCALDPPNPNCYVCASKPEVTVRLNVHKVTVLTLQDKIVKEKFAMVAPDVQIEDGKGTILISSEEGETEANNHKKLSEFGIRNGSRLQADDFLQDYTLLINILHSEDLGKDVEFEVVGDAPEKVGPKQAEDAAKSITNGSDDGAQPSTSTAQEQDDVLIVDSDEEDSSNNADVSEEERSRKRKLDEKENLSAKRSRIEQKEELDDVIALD
Sequence of recombinant human SAE enzyme (Q9UBE0 whole entry partner): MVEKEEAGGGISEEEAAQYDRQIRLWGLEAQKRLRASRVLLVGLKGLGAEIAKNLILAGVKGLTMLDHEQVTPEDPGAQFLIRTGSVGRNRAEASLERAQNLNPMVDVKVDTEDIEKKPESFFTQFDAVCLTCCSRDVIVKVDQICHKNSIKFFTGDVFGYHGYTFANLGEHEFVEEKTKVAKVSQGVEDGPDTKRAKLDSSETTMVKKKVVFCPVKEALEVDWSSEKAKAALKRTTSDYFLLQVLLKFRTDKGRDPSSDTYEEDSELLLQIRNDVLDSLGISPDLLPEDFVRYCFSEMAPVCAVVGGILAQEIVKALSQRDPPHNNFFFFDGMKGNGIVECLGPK

Compound	IC50 [2] [nM]	Percent Inhibition (Concentration 0.111 μM)	IC50 (class symbols A/B/C) [nM]	other results
NS(=O)(=O)OC[C@H]1C[C@@H](Nc2ncncc2C(=O)c2cc([C@H]3NCCc4ccccc43)c(Cl)s2)[C@H](O)[C@@H]1O (mixture of isomers) [I-302, [(1R,2R,3S,4R)-4-{[5-({5-chloro-4-[(1S)-1,2,3,4-tetrahydroisoquinolin-1-yl]-2-thienyl}carbonyl)pyrimidin-4-yl]amino}-2,3-dihydroxycyclopentyl]methyl sulfamate and [(1R,2R,3S,4R)-4-{[5-({5-chloro-4-[(1R)-1,2,3,4-tetrahydroisoquinolin-1-yl]-2-thienyl}carbonyl)pyrimidin-4-yl]amino}-2,3-dihydroxycyclopentyl]methyl sulfamate]	< 10			Percent Inhibition [1]: 100%
C#Cc1cccc(Cc2csc(C(=O)c3cncnc3N[C@@H]3C[C@H](COS(N)(=O)=O)[C@@H](O)C3)c2)c1 [I-70, {(1R,2S,4R)-4-[(5-{[4-(3-Ethynylbenzyl)-2-thenyl]carbonyl}pyrimidin-4-yl)amino-2-hydroxycyclopentyl}methyl sulfamate]		98	< 10	
Cc1sc(C(=O)c2cncnc2N[C@@H]2C[C@H](COS(N)(=O)=O)[C@@H](O)[C@H]2O)nc1Cc1cccc(Cl)c1 [I-352, {(1R,2R,3S,4R)-4-[(5-{[4-(3-chlorobenzyl)-5-methyl-1,3-thiazol-2-yl]carbonyl}pyrimidin-4-yl)amino]-2,3-dihydroxycyclopentyl}methyl sulfamate]	< 10			inhibition at 0.111 µM [1]: 100%
Cc1sc(C(=O)c2cncnc2N[C@@H]2C[C@H](COS(N)(=O)=O)[C@@H](O)C2)cc1Cn1ccc(C#N)c1 [I-194, [(1R,2S,4R)-4-{[5-({4-[(3-cyano-1H-pyrrol-1-yl)methyl]-5-methyl-2-thienyl}carbonyl)pyrimidin-4-yl]amino}-2-hydroxycyclopentyl]methyl sulfamate]			10 to 100	inhibition at 0.111 µM (Concentration 0.111 μM): 66%
Cc1nc2n(c1C)CCO[C@@H]2c1cc(C(=O)c2cncnc2N[C@@H]2C[C@H](COS(N)(=O)=O)[C@@H](O)C2)sc1C (single isomer, unassigned) [I-356a, [(1R,2S,4R)-4-{[5-({4-[(8R)-2,3-dimethyl-5,6-dihydro-8H-imidazo[2,1-c][1,4]oxazin-8-yl]-5-methyl-2-thienyl}carbonyl)pyrimidin-4-yl]amino}-2-hydroxycyclopentyl]methyl sulfamate or [(1R,2S,4R)-4-{[5-({4-[(8S)-2,3-dimethyl-5,6-dihydro-8H-imidazo[2,1-c][1,4]oxazin-8-yl]-5-methyl-2-thienyl}carbonyl)pyrimidin-4-yl]amino}-2-hydroxycyclopentyl]methyl sulfamate]	10 to 100			Percent Inhibition [1]: 52%
N[C@@H](c1cccc(Br)n1)c1cc(C(=O)c2cncnc2N[C@@H]2C[C@H](COS(N)(=O)=O)[C@@H](O)[C@H]2O)sc1Cl (single isomer, unassigned) [I-10b, [(1R,2R,3S,4R)-4-{[5-({4-[(R)-amino(6-bromopyridin-2-yl)methyl]-5-chloro-2-thienyl}carbonyl)pyrimidin-4-yl]amino}-2,3-dihydroxycyclopentyl]methyl sulfamate or [(1R,2R,3S,4R)-4-{[5-({4-[(S)-amino(6-bromopyridin-2-yl)methyl]-5-chloro-2-thienyl}carbonyl)pyrimidin-4-yl]amino}-2,3-dihydroxycyclopentyl]methyl sulfamate]		97	< 10	
Cc1sc(C(=O)c2cncnc2N[C@@H]2C[C@H](COS(N)(=O)=O)[C@@H](O)C2)cc1[C@@H]1SCc2ccc(Cl)cc21 (mixture of isomers) [I-359a, [(1RS,2SR,4RS)-4-[[5-[4-[(R)-6-chloro-1,3-dihydro-2-benzothiophene-1-yl]-5-methyl-thiophene-2-carbonyl]pyrimidin-4-yl]amino]-2-hydroxy-cyclopentyl]methyl sulfamate]	10 to 100			inhibition at 0.111 µM [1]: 92%
NS(=O)(=O)OC[C@H]1C[C@@H](Nc2ncncc2C(=O)c2cc(Cc3cccc(Cl)n3)cs2)C[C@@H]1O [I-71, [(1R,2S,4R)-4-{[5-({4-[(6-chloropyridin-2-yl)methyl]-2-thienyl}carbonyl)pyrimidin-4-yl]amino}-2-hydroxycyclopentyl]methyl sulfamate]				inhibition at 0.111 µM (Concentration 0.111 μM): 98%
NS(=O)(=O)OC[C@H]1C[C@@H](Nc2ncncc2C(=O)c2cc([C@@H]3OCCc4ccc(Br)cc43)cs2)C[C@@H]1O (single isomer, unassigned) [I-268b, [(1R,2S,4R)-4-{[5-({4-[(1R)-7-bromo-3,4-dihydro-1H-isochromen-l-yl]-2-thienyl}carbonyl)pyrimidin-4-yl]amino}-2-hydroxycyclopentyl]methyl sulfamate or [(1R,2S,4R)-4-{([5-({4-[(1S)-7-bromo-3,4-dihydro-1H-isochromen-1-yl]-2-thienyl}carbonyl)pyrimidin-4-yl]amino}-2-hydroxycyclopentyl]methyl sulfamate]		102	< 10	
C=C(C)[C@H](O)c1cc(C(=O)c2cncnc2N[C@@H]2C[C@H](COS(N)(=O)=O)[C@@H](O)C2)sc1Cl (mixture of isomers) [I-141, [(1R,2S,4R)-4-{[5-({5-chloro-4-[(1S)-1-hydroxy-2-methylprop-2-en-1-yl]-2-thienyl}carbonyl)pyrimidin-4-yl]amino}-2-hydroxycyclopentyl]methyl sulfamate and [(1R,2S,4R)-4-{[5-({5-chloro-4-[(1R)-1-hydroxy-2-methylprop-2-en-1-yl]-2-thienyl}carbonyl)pyrimidin-4-yl]amino}-2-hydroxycyclopentyl]methyl sulfamate]		95	< 10	
CN1Cc2ccc(Cl)cc2[C@@H]1c1csc(C(=O)c2cncnc2N[C@@H]2C[C@H](COS(N)(=O)=O)[C@@H](O)C2)c1 (single isomer, unassigned) [I-265a, [(1R,2S,4R)-4-{[5-({4-[(1R)-6-chloro-2-methyl-2,3-dihydro-1H-isoindol-1-yl]-2-thienyl}carbonyl)pyrimidin-4-yl]amino}-2-hydroxycyclopentyl]methyl sulfamate or [(1R,2S,4R)-4-{[5-({4-[(1S)-6-chloro-2-methyl-2,3-dihydro-1H-isoindol-1-yl]-2-thienyl}carbonyl)pyrimidin-4-yl]amino}-2-hydroxycyclopentyl]methyl sulfamate]		99	< 10	
NS(=O)(=O)OC[C@H]1C[C@@H](Nc2ncncc2C(=O)c2cc([C@@H]3NCc4ccc(Cl)cc43)c(Cl)s2)C[C@@H]1O (mixture of isomers) [I-262, [(1R,2S,4R)-4-{[5-({5-chloro-4-[(1R)-6-chloro-2,3-dihydro-1H-isoindol-1-yl]-2-thienyl}carbonyl)pyrimidin-4-yl]amino}-2-hydroxycyclopentyl]methyl sulfamate and [(1R,2S,4R)-4-{[5-({5-chloro-4-[(1S)-6-chloro-2,3-dihydro-1H-isoindol-1-yl]-2-thienyl}carbonyl)pyrimidin-4-yl]amino}-2-hydroxycyclopentyl]methyl sulfamate]		100	< 10	

Reference: patent US10780090B2, “Heteroaryl compounds useful as inhibitors of SUMO activating enzyme” (Millennium Pharmaceuticals, Inc., priority 2014, dated 2020)
